{"source": "paper PMC13077603", "about": "“Fluorine‐18‐Labeled Nucleotide Analogs Targeting Ecto‐5'‐Nucleotidase (CD73) for Positron Emission Tomography Imaging of Solid Tumors” (Angewandte Chemie (International Ed. in English), 2026)", "key": {"[1]": {"molecular_target": "T1, CD73 in human breast cancer samples (Homo sapiens, UniProt P21589)", "T1 construct": "cryosections of breast tumor samples as well as sentinel lymph node samples were investigated; from tissue; host or cells: primary breast tumors and sentinel lymph nodes of two patients, 6 µm cryosections", "T1 sequence (P21589 27-574)": "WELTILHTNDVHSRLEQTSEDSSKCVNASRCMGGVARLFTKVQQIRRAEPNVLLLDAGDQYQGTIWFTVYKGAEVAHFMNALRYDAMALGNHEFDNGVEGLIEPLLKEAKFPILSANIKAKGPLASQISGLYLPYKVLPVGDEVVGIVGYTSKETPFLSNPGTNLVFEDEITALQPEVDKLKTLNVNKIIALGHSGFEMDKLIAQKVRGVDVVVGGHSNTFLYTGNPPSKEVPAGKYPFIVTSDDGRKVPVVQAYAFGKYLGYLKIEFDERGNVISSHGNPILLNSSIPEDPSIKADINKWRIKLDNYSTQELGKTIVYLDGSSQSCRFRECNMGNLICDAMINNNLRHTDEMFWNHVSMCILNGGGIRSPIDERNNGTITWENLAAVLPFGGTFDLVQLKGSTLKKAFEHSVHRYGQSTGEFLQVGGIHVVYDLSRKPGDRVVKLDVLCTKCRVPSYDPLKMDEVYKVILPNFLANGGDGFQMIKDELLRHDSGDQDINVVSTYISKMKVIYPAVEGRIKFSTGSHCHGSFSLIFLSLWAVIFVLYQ", "experiment": "Autoradiography on human breast tumor and sentinel lymph node cryosections", "type": "binding", "conditions": "autoradiography, cryosections", "experimental": "To test specific radiotracer binding to its target, we performed in situ autoradiography. [^18F]2 was applied onto cryosections of neighboring slides of tumor tissues from primary breast tumors from patient X (Figure 4A) and patient Y (Figure 4B), used for immunohistochemistry and AMPase activity determination. Sentinel LN from patient Y was incubated with [^18F]1 (Figure 4C).\nFIGURE 4 Autoradiographic imaging of ^18F‐labeled CD73 tracer binding to tissue samples of breast tumors and sentinel lymph nodes. Primary breast tumor (A, B) and LN cryosections (C) were incubated with [^18F]2 or [^18F]1 in the absence (control) and in the presence of an unlabeled CD73 inhibitor, AMPCP (13) or JMS04‐14 (14), as indicated. The samples were processed for autoradiographic analysis, as described in the materials and methods section. The white dotted lines outline the tissue boundaries. (D). Structures of CD73 inhibitors applied as blockers in this study.\nFor the assessment of ^18F-labeled CD73 tracer binding to human tissues, cryosections of breast tumor samples as well as sentinel lymph node samples were investigated. Cryosections were thawed and pre-incubated for 15 min at room temperature in 2-[4-(2-hydroxyethyl)piperazin-1-yl]ethanesulfonic acid buffer (HEPES). […] Blocking compounds were prepared according to the molar activity of the radiolabeled tracers [^18F]MRS-4648 and [^18F]PSB-19427 aiming at a 1000-fold excess of the blocking agent. For each tissue sample, neighboring sections were incubated for 20 min at room temperature with a mixture of 50µL of the radiotracer and 50µL of the classical CD73 inhibitor AMPCP (25 nmol, in PBS), or JMS0414 (61 nmol, in HEPES), or HEPES buffer respectively. After incubation, slides were washed three times with PBS and Aqua bidest, mounted on a slide holder for the image acquisition, and covered with protection and scintillation foils. Digital autoradiography measurement of each slide was performed for 60 minutes (Micro Imager, Biospace, France). Acquired data were corrected for radioactive decay in reference to the start of the acquisition as well as the start of the incubation."}, "[2]": {"molecular_target": "T2, CD73/AMPase activity in human breast tumor tissues (Homo sapiens, UniProt P21589)", "T2 construct": "cryosections of breast tumor samples as well as sentinel lymph node samples were investigated; from tissue; host or cells: primary breast tumors and sentinel lymph nodes of two patients, 6 µm cryosections", "T2 sequence (P21589 27-574)": "T1 sequence (P21589 27-574)", "experiment": "In situ enzyme histochemistry of AMPase activity in breast tumor cryosections", "type": "biochemical", "conditions": "10–50 nM inhibitor, 400 µM AMP, tissue cryosections", "experimental": "Subsequent analysis of CD73‐mediated AMPase activities was performed by incubating tissue cryosections with AMP and CD73 inhibitors at different concentrations. Figure 2 depicts representative images of AMP‐specific staining in breast tumors from patient X (panel A) and patient Y (panel B), determined in the absence (control) and in the presence of 10 nM of the potent CD73 inhibitor 1.\nFIGURE 3 Effects of CD73 inhibitors on AMPase activity in human breast tumor tissues. The effects of CD73 inhibitors on AMPase activity was determined in situ by incubating primary breast tumor samples from patient X (A) and patient Y (B) with 400 µM AMP and 1.5 mM Pb(NO3)2 in the absence (control) and the presence of the indicated concentrations of CD73 inhibitor. (C). Mean pixel intensities of brown staining due to the hydrolysis of AMP leading to Pb3(PO4)2 precipitation were quantified in the selected regions and expressed as arbitrary units (AU) (mean ± SEM; n = 2). Scale bars: 2 mm (A, B), and 500 µm (A, right insets).\nFor the localization of AMPase activities in human tumors, the lead nitrate-based enzyme histochemistry was employed. […] AMPase activity was determined by measuring AMP-specific brown staining intensities from the images using QuPath v.0.3.0 software. […] The average DAB intensity levels were measured as described earlier.^[39^] […]"}}}
{"smiles": "CCCN(Cc1ccc(-c2cn(CC[18F])nn2)cc1)c1nc(Cl)nc2c1ncn2[C@@H]1O[C@H](COP(=O)(O)CP(=O)(O)O)[C@@H](O)[C@H]1O", "note": "[[^18F]1, [^18F]-[((2R,3S,4R,5R)-5-{2-chloro-6-[(4-{1-[2-(fluoro)ethyl]-1H-1,2,3-triazol-4-yl}benzyl)-(propyl)amino]-9H-purin-9-yl}-3,4-dihydroxytetrahydrofuran-2-yl)methoxy]methylene-bisphosphonic acid]", "values": [{"measurement": "Tracer binding to CD73 in human breast cancer samples", "setting": "[1]", "result": "selectively bind"}]}
{"smiles": "Cn1c(=O)n([C@@H]2O[C@H](COP(=O)(O)CP(=O)(O)O)[C@@H](O)[C@H]2O)cc/c1=N/OCc1ccc(-c2cn(CC[18F])nn2)cc1", "note": "[[^18F]2, [^18F]-{[(2R,3S,4R,5R)-5-(4-{[(4-{1-[2-(fluoro)ethyl]-1H-1,2,3-triazol-4-yl}benzyl)-oxy]imino}-3-methyl-2-oxo-3,4-dihydropyrimidin-1(2H)-yl)-3,4-dihydroxytetra-hydrofuran-2-yl]methoxy}methylenebisphosphonic acid]", "values": [{"measurement": "Tracer binding to CD73 in human breast cancer samples", "setting": "[1]", "result": "selectively bind"}]}
{"smiles": "CCCN(Cc1ccc(-c2cn(CCF)nn2)cc1)c1nc(Cl)nc2c1ncn2[C@@H]1O[C@H](COP(=O)(O)CP(=O)(O)O)[C@@H](O)[C@H]1O", "note": "[compound 1]", "values": [{"measurement": "Reduction of CD73/AMPase activity in the breast TME", "setting": "[2]", "result": "60%–70"}]}
